Measured values as given in article PMC5736175, “Nicotinic alpha 7 receptor agonists EVP-6124 and BMS-933043, attenuate scopolamine-induced deficits in visuo-spatial paired associates learning” (PLoS ONE, 2017).
Values joined by “and” are separate entries in the source; they are usually repeats but may differ in a detail not shown here. Equal values may be shown once. “Also recorded” adds a separate entry of the source.

What was measured:
[1] = Plasma pharmacokinetics in satellite animals (LC-MS/MS), 60 min after i.m. dose; settings: for concentration at 60 min: cynomolgus monkey, plasma, intramuscular
Method: For all compounds, plasma pharmacokinetic studies were conducted in a separate cohort of cynomolgus monkeys (N = 2–3 subjects per dose) before beginning vsPAL testing to help guide dose selection. Blood samples were obtained with the animals awake and sitting in a primate chair.
Plasma concentrations of test compounds were determined using LC-MS/MS assays. In brief, 50 μL plasma and sample containing compounds was extracted by protein precipitation method with 150 μL acetonitrile containing an internal standard. A 5 μL sample of supernatant was injected into the LC-MS/MS system. Analytes were separated by reversed phase chromatography and detection of each analyte was achieved through selected reaction monitoring mode of mass spectrometry. Samples were quantified by calculated peak area ratio of analyte and internal standard against a calibration curve.

[2] = tested on: 5-HT3 receptor; settings: cited from earlier work
[3] = tested on: human nAChR α7; set-up: method as in PMID 20959364; settings: QM7 cells expressing human nAChR α7; cited from earlier work
[4] = tested on: human nAChR α7; set-up: method as in PMID 20959364, PMID 22085888; settings: xenopus oocytes expressing human nAChR α7; cited from earlier work
[5] = tested on: scopolamine-treated cynomolgus monkeys; assay: Scopolamine-induced impairment of vsPAL task performance, treatment + scopolamine; type: in vivo, cynomolgus monkeys (Macaca Fasicularis)
Method: Doses cited refer to the free base form of the compounds. […] All drugs were administered intramuscularly (i.m.) in a dosing volume of 0.1–0.2 ml/kg.
On days when compound testing occurred, approximately half the cohort received one dose and the remainder another dose of the same compound and therefore dose order was staggered between animals. With the exception of EVP-6124, all other compounds were tested in a single dose response study.
Cohen’s d values of >0.2, >0.5 and >0.8 are described using the conventions of small, medium, and large effects, respectively.

[6] = RG3487 0.03 mg/kg + Individualized Scopolamine, MEAN of 8 animals
[7] = RG3487 0.03 mg/kg + Individualized Scopolamine, individual animals, 0.03 mg/kg
[8] = RG3487 0.03 mg/kg + scopolamine, MEAN of 8 animals
[9] = RG3487 0.03 mg/kg + scopolamine, individual animals, 0.03 mg/kg
[10] = RG3487 0.1 mg/kg + Individualized Scopolamine, MEAN of 8 animals
[11] = RG3487 0.1 mg/kg + Individualized Scopolamine, individual animals, 0.1 mg/kg
[12] = RG3487 0.1 mg/kg + scopolamine, MEAN of 8 animals
[13] = RG3487 0.1 mg/kg + scopolamine, individual animals, 0.1 mg/kg
[14] = RG3487 0.3 mg/kg + scopolamine, MEAN of 8 animals
[15] = RG3487 0.3 mg/kg + scopolamine, individual animals, 0.3 mg/kg
[16] = RG3487 1.0 mg/kg + scopolamine, MEAN of 8 animals
[17] = RG3487 1.0 mg/kg + scopolamine, individual animals, 1 mg/kg
[18] = all doses of the study, for EVP-6124 study (1)
[19] = compound 0.03 mg/kg i.m. + Scopolamine
[20] = compound 0.10 mg/kg i.m. + Scopolamine
[21] = compound 0.30 mg/kg i.m. + Scopolamine
[22] = compound 1.00 mg/kg i.m. + Scopolamine

SMILES: Cl.O=C(N[C@@H]1CN2CCC1CC2)c1n[nH]c2ccccc12 [RG3487, N-[(3S)-1-Azabicyclo[2.2.2]oct-3-yl]-1H-indazole-3-carboxamide HCl]
- nM total compound in plasma from satellite animals, 60 min ([1]; 0.10 mg/kg i.m., individual subjects): 74.4 nM
- nM total compound in plasma from satellite animals, 60 min ([1]; 0.30 mg/kg i.m., individual subjects): 132.0 nM
- nM total compound in plasma from satellite animals, 60 min ([1]; 1.00 mg/kg i.m., individual subjects): 305.0 nM
- concentration at 60 min ([1]; 0.1 mg/kg, nM total compound in plasma from satellite animals, 60 min, 0.10 mg/kg i.m., individual subjects): 42.9 nM
- concentration at 60 min ([1]; 0.1 mg/kg, nM total compound in plasma from satellite animals, 60 min, 0.10 mg/kg i.m., mean): 58.7 nM
- concentration at 60 min ([1]; 0.3 mg/kg, nM total compound in plasma from satellite animals, 60 min, 0.30 mg/kg i.m., individual subjects): 114 nM
- concentration at 60 min ([1]; 0.3 mg/kg, nM total compound in plasma from satellite animals, 60 min, 0.30 mg/kg i.m., mean): 123 nM
- concentration at 60 min ([1]; 1 mg/kg, nM total compound in plasma from satellite animals, 60 min, 1.00 mg/kg i.m., individual subjects): 595 nM
- concentration at 60 min ([1]; 1 mg/kg, nM total compound in plasma from satellite animals, 60 min, 1.00 mg/kg i.m., mean): 450 nM
- concentration at 60 min ([1]; exposures (predicted and measured), 0.03-1 mg/kg im dose range): 15 to 450 nM
- concentration at 60 min ([1]; mean plasma concentrations, satellite animals 60 min post-administration, 0.1-1.0 mg/kg dose range): 58.7 to 450 nM
- 5-HT3 receptor antagonism [2]: potent 5-HT3 receptor antagonists
- maximal peak current relative to acetylcholine [3]: 69%
- net charge relative to acetylcholine [3]: 53%
- maximal peak current, % of the acetylcholine response [4]: 63%
- Initial Correct, 3 Stimuli [5, 6]: 43.8%
- Initial Correct, 4 Stimuli [5, 6]: 25.0%
- Initial Correct, Overall Mean % Correct [5, 6]: 50.8%
- Initial correct, 2 Stimuli [5, 6]: 83.8%
- Initial Correct, 3 Stimuli [5, 7]: 60.0% and 20.0% and 40.0% and 30.0% and 90.0% and 10.0% and 80.0%
- Initial Correct, 4 Stimuli [5, 7]: 30.0% and 0.0% and 50.0% and 40.0%
- Initial Correct, Overall Mean % Correct [5, 7]: 60.0% and 36.7% and 46.7% and 76.7% and 40.0% and 30.0% and 70.0%
- Initial correct, 2 Stimuli [5, 7]: 90.0% and 70.0% and 60.0% and 100.0% and 80.0%
- Eventual Correct, 4 Stimuli ([5]; RG3487 0.03 mg/kg + scopolamine, MEAN): 59.5%
- % Completion [5, 8]: 73.5%
- Average Response Latency (Avg Rsp Lat) [5, 8]: 2136.0 ms
- Eventual Correct, 2 Stimuli [5, 8]: 98.8%
- Eventual Correct, 3 Stimuli [5, 8]: 83.8%
- Eventual Correct, Overall Mean % Correct [5, 8]: 78.2%
- % Completion [5, 9]: 66.2% and 53.1% and 100.0% and 69.9% and 90.5% and 22.8% and 97.3% and 88.2%
- Average Response Latency (Avg Rsp Lat) [5, 9]: 2657.3 ms and 2531.6 ms and 1590.6 ms and 1325.7 ms and 2502.3 ms and 1742.8 ms and 2670.3 ms and 2067.1 ms
- Eventual Correct, 2 Stimuli [5, 9]: 100.0% and 90.0%
- Eventual Correct, 3 Stimuli [5, 9]: 100.0% and 60.0% and 70.0% and 50.0% and 90.0%
- Eventual Correct, 4 Stimuli [5, 9]: 50.0% and 0.0% and 90.0% and 70.0% and 100.0% and 16.7%
- Eventual Correct, Overall Mean % Correct [5, 9]: 83.3% and 50.0% and 96.7% and 80.0% and 100.0% and 68.9%
- Initial Correct, 3 Stimuli [5, 10]: 47.5%
- Initial Correct, 4 Stimuli [5, 10]: 13.8%
- Initial Correct, Overall Mean % Correct [5, 10]: 50.4%
- Initial correct, 2 Stimuli [5, 10]: 90.0%
- Initial Correct, 3 Stimuli [5, 11]: 70.0% and 10.0% and 60.0% and 50.0% and 80.0% and 40.0% and 30.0%
- Initial Correct, 4 Stimuli [5, 11]: 20.0% and 0.0% and 30.0% and 10.0% and 50.0%
- Initial Correct, Overall Mean % Correct [5, 11]: 63.3% and 30.0% and 46.7% and 56.7% and 43.3%
- Initial correct, 2 Stimuli [5, 11]: 100.0% and 80.0% and 90.0%
- % Completion [5, 12]: 75.6%
- Average Response Latency (Avg Rsp Lat) [5, 12]: 2202.7 ms
- Eventual Correct, 2 Stimuli [5, 12]: 100.0%
- Eventual Correct, 3 Stimuli [5, 12]: 91.3%
- Eventual Correct, 4 Stimuli [5, 12]: 48.1%
- Eventual Correct, Overall Mean % Correct [5, 12]: 79.8%
- Eventual Correct, 2 Stimuli ([5]; RG3487 0.1 mg/kg + scopolamine, individual animals): 100.0%
- % Completion [5, 13]: 58.8% and 65.1% and 100.0% and 88.7% and 67.1% and 35.0% and 91.9% and 98.1%
- Average Response Latency (Avg Rsp Lat) [5, 13]: 2536.1 ms and 2248.5 ms and 1598.6 ms and 1289.8 ms and 2048.9 ms and 2712.3 ms and 2472.3 ms and 2715.2 ms
- Eventual Correct, 3 Stimuli [5, 13]: 100.0% and 80.0% and 70.0%
- Eventual Correct, 4 Stimuli [5, 13]: 50.0% and 16.7% and 80.0% and 70.0% and 40.0% and 11.1% and 100.0%
- Eventual Correct, Overall Mean % Correct [5, 13]: 83.3% and 65.6% and 93.3% and 90.0% and 80.0% and 63.7% and 62.2% and 100.0%
- % Completion [5, 14]: 74.7%
- Average Response Latency (Avg Rsp Lat) [5, 14]: 2047.1 ms
- Initial Correct, 3 Stimuli [5, 14]: 42.5%
- Initial Correct, 4 Stimuli [5, 14]: 20.4%
- Initial Correct, Overall Mean % Correct [5, 14]: 48.9%
- Initial correct, 2 Stimuli [5, 14]: 83.8%
- % Completion [5, 15]: 48.2% and 79.1% and 98.4% and 87.1% and 95.1% and 24.7% and 100.0% and 65.1%
- Average Response Latency (Avg Rsp Lat) [5, 15]: 1983.4 ms and 2543.8 ms and 1430.4 ms and 1376.1 ms and 2172.3 ms and 1933.4 ms and 2432.3 ms and 2505.1 ms
- Initial Correct, 3 Stimuli [5, 15]: 30.0% and 70.0% and 0.0% and 40.0%
- Initial Correct, 4 Stimuli [5, 15]: 0.0% and 12.5% and 30.0% and 10.0% and 60.0% and 20.0%
- Initial Correct, Overall Mean % Correct [5, 15]: 43.3% and 37.5% and 63.3% and 76.7% and 20.0% and 46.7% and 60.0%
- Initial correct, 2 Stimuli [5, 15]: 100.0% and 70.0% and 90.0% and 40.0%
- % Completion [5, 16]: 78.8%
- Average Response Latency (Avg Rsp Lat) [5, 16]: 2200.2 ms
- Eventual Correct, 2 Stimuli [5, 16]: 100.0%
- Eventual Correct, 3 Stimuli [5, 16]: 85.0%
- Eventual Correct, 4 Stimuli [5, 16]: 54.2%
- Eventual Correct, Overall Mean % Correct [5, 16]: 79.7%
- Initial Correct, 3 Stimuli [5, 16]: 48.8%
- Initial Correct, 4 Stimuli [5, 16]: 22.2%
- Initial Correct, Overall Mean % Correct [5, 16]: 49.5%
- Initial correct, 2 Stimuli [5, 16]: 77.5%
- Eventual Correct, 2 Stimuli ([5]; RG3487 1.0 mg/kg + scopolamine, individual animals): 100.0%
- % Completion [5, 17]: 70.4% and 84.7% and 100.0% and 97.1% and 94.2% and 27.7% and 96.4% and 60.3%
- Average Response Latency (Avg Rsp Lat) [5, 17]: 2560.1 ms and 2640.7 ms and 1701.5 ms and 1446.7 ms and 1640.8 ms and 2013.9 ms and 2805.9 ms and 2791.8 ms
- Eventual Correct, 3 Stimuli [5, 17]: 100.0% and 70.0% and 80.0% and 90.0%
- Eventual Correct, 4 Stimuli [5, 17]: 80.0% and 33.3% and 50.0% and 70.0% and 16.7%
- Eventual Correct, Overall Mean % Correct [5, 17]: 93.3% and 77.8% and 73.3% and 83.3% and 90.0% and 62.2% and 71.1% and 86.7%
- Initial Correct, 3 Stimuli [5, 17]: 70.0% and 50.0% and 20.0% and 80.0% and 30.0%
- Initial Correct, 4 Stimuli [5, 17]: 30.0% and 11.1% and 10.0% and 50.0% and 0.0% and 16.7%
- Initial Correct, Overall Mean % Correct [5, 17]: 66.7% and 37.0% and 30.0% and 60.0% and 70.0% and 33.3% and 38.9%
- Initial correct, 2 Stimuli [5, 17]: 100.0% and 50.0% and 60.0% and 80.0% and 70.0%
- Holm-Sidak Post-Hoc, Treatment+Scopolamine differs from Vehicle+Scopolamine: percent correct on initial attempt, 3-stimuli ([5]; all doses of the study): n.s.
- Holm-Sidak Post-Hoc, Treatment+Scopolamine differs from Vehicle+Scopolamine: Choice Response Latency [5, 18]: n.s.
- Holm-Sidak Post-Hoc, Treatment+Scopolamine differs from Vehicle+Scopolamine: Percent Task Completed [5, 18]: n.s.
- Holm-Sidak Post-Hoc, Treatment+Scopolamine differs from Vehicle+Scopolamine: percent correct on initial attempt, 2-stimuli [5, 18]: n.s.
- Holm-Sidak Post-Hoc, Treatment+Scopolamine differs from Vehicle+Scopolamine: percent correct on initial attempt, 4 stimuli [5, 18]: n.s.
- Percent Correct on Initial Attempt (SEM), 2 stimuli [5, 19]: 83.8% (4.6%)
- Percent Correct on Initial Attempt (SEM), 3 stimuli [5, 19]: 43.8% (10.5%)
- Percent Correct on Initial Attempt (SEM), 4 stimuli [5, 19]: 25.0% (7.8%)
- Percent Correct on Initial Attempt (SEM), 2 stimuli [5, 20]: 90.0% (3.3%)
- Percent Correct on Initial Attempt (SEM), 3 stimuli [5, 20]: 47.5% (8.0%)
- Percent Correct on Initial Attempt (SEM), 4 stimuli [5, 20]: 13.8% (6.5%)
- Percent Correct on Initial Attempt (SEM), 2 stimuli [5, 21]: 83.8% (7.1%)
- Percent Correct on Initial Attempt (SEM), 3 stimuli [5, 21]: 42.5% (9.0%)
- Percent Correct on Initial Attempt (SEM), 4 stimuli [5, 21]: 20.4% (7.5%)
- Percent Correct on Initial Attempt (SEM), 2 stimuli [5, 22]: 77.5% (6.2%)
- Percent Correct on Initial Attempt (SEM), 3 stimuli [5, 22]: 48.8% (8.3%)
- Percent Correct on Initial Attempt (SEM), 4 stimuli [5, 22]: 22.2% (5.6%)
- effect on scopolamine-induced impairment of eventual accuracy ([5]; dose range 0.03-1.0 mg/kg i.m.): not efficacious; also recorded: failed to improve eventual accuracy; also recorded: no reversal
